{
  "source": "patent US20240398836A1",
  "about": "“EPOXY STEROIDS” (priority 2021, published 2024)",
  "assay_type_in_all_cases": "cell-based",
  "key": {"BiBo cells": {"test_system": "BiBo cells", "assay": "Apoptosis induction in polycytostatics-resistant BiBo cells vs BJAB", "conditions": "vincristine-resistant BJAB, Bcl-2 overexpression", "method": "BiBo cells are lymphoma cells (BJAB cells) that have been made resistent against vincristine, and have a Bcl-2 overexpression as a resistence mechanism. They have co-resistences for the following cytostatics: • vincristine, vinblastine, vindesine, vinorelbin, taxol • cytarabin • daunorubicin.\nThe experiments were performed in triplicate. The error bars show the standard deviations of the measured values of three independent experiments. The steroid WIL 071 overcomes steroid resistence in lymphoma cells (BiBo cells)."}, "7-CCA cells": {"test_system": "7-CCA cells", "assay": "Apoptosis induction in polycytostatics-resistant 7-CCA cells vs BJAB", "conditions": "doxorubicin-resistant BJAB, caspase-3 underexpression", "method": "7-CCA cells are lymphoma cells (BJAB cells) that have been made resistent against doxorubin, and have a caspase-3 underexpression as a resistence mechanism. They have co-resistences for the following cytostatics: • vincristine, vinblastine, vindesine, vinorelbin, taxol • cytarabin, fudarabin, cladribin, clofarabin, • daunorubicin, doxorubicin, idarubicin, epirubicin • cisplatin, oxaliplatin\nThe experiments were performed in triplicate. The error bars show the standard deviations of the measured values of three independent experiments. The steroid WIL 071 overcomes steroid resistence in lymphoma cells (7-CCA cells)."}, "[1]": {"test_system": "primary glioblastoma cells of a patient", "assay": "Apoptosis in primary human glioblastoma cells", "conditions": "grade 4", "method": "In contrast to conventional glucocorticoids, the steroid WIL 071 can induce apoptosis also in primary human brain tumor cells.\nThe DNA fragmentation was measured by flow cytometry, see FIG. 10. The experiments were performed in triplicate. The error bars show the standard deviations of the measured values of three independent experiments."}, "Nalm-6 cells": {"test_system": "Nalm-6 cells", "assay": "Half-maximal apoptosis induction (AC50) in Nalm-6 cells", "conditions": "Homo sapiens; Nalm-6, 72 h, flow cytometry; read-out: Biological effect: half-maximal apoptosis induction (AC50)", "method": "Apoptosis Induction in Nalm-6 Cells after Treatment with WIL-071 or Different Steroid Derivatives.\nThe cells were incubated in 6-well plates with 1.0·10^5 cells/mL in two milliliters of medium with the respective steroid derivative in different concentrations. The included solvent control (DMSO) served as a control, which was subtracted from all the other measured values, in order not to take into account the spontaneous apoptosis of the cells that takes place independently of the concentration of active ingredient. After 72 h, a modified cell cycle analysis was performed, in order to quantify the proportion of apoptotic cells by flow cytometry. For each concentration of the steroid, the respective mean values f standard deviations, n=3 (*: p<0.05 vs. DMSO, t test) were determined. Using the curve of the dose-effect relationship (steroid concentration−apoptosis induction) formed from these measured values, the steroid concentration at which apoptosis was triggered in 50% of the tested leukemia cells was read."}},
  "data": [
    {"smiles": "CC(C)CCC[C@@H](C)[C@H]1CC[C@H]2[C@@H]3[C@H]4OC[C@@]5(CC[C@H](O)C[C@]5(O)C4=O)[C@H]3CC[C@]12C", "note": "[WIL-071, 3β,5α-dihydroxy-7β,19-epoxy-cholestan-6-one]", "values": [
      {"measurement": "apoptosis induction in resistant BiBo cells compared with BJAB", "setting": "BiBo cells", "result": "induces as much apoptosis as in the non-resistent lymphoma cells"},
      {"measurement": "apoptosis induction in resistant 7-CCA cells compared with BJAB", "setting": "7-CCA cells", "result": "induces as much apoptosis as in the non-resistent lymphoma cells"},
      {"measurement": "apoptosis induction (DNA fragmentation)", "setting": "[1]", "result": "significantly induces apoptosis"},
      {"measurement": "AC50", "setting": "Nalm-6 cells", "result": 17.2, "unit": "µM"}
    ]}
  ]
}
